From patent publication US20260285850A1, “SUBSTITUTED OXAZOLIDINONES AND IMIDAZOLINONES AS HERBICIDES” (FMC CORPORATION, priority 2023, published 2026)

What was measured:
Type in all cases: in vivo
[1] = system: barnyardgrass (Echinochloa crus-galli); assay: Test A preemergence soil spray, visual injury rating 0-100; conditions: 10 days
Outline: (§1)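 Greenhouse test: loam/sand pots received a surfactant-containing formulation, as a preemergence directed soil spray or a postemergence spray on young plants. Injury was judged visually at day 10 relative to untreated controls.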

[2] = system: blackgrass (Alopecurus myosuroides); assay: as above; conditions: 10 days
Outline: as §1

corn (Zea mays) [3] = assay: as above; conditions: 10 days
Outline: as §1

[4] = system: green foxtail (Setaria viridis); assay: as above; conditions: 10 days
Outline: as §1

kochia (Bassia scoparia) [5] = assay: as above; conditions: 10 days
Outline: as §1

[6] = system: oat, wild (wild oat, Avena fatua); assay: as above; conditions: 10 days
Outline: as §1

[7] = system: palmer (palmer amaranth, palmer pigweed, Amaranthus palmeri); assay: as above; conditions: 10 days
Outline: as §1

[8] = system: ragweed (common ragweed, Ambrosia artemisiifolia); assay: as above; conditions: 10 days
Outline: as §1

[9] = system: ryegrass, Italian (italian ryegrass, Lolium multiflorum); assay: as above; conditions: 10 days
Outline: as §1

soybean (Glycine max) [10] = assay: as above; conditions: 10 days
Outline: as §1

[11] = system: wheat (Triticum aestivum); assay: as above; conditions: 10 days
Outline: as §1

[12] = system: barnyardgrass (Echinochloa crus-galli); assay: Test A postemergence application, visual injury rating 0-100
Outline: as §1

[13] = system: blackgrass (Alopecurus myosuroides); assay: as above
Outline: as §1

corn (Zea mays) [14] = assay: as above
Outline: as §1

[15] = system: galium (catchweed bedstraw, Galium aparine); assay: as above
Outline: as §1

[16] = system: green foxtail (Setaria viridis); assay: as above
Outline: as §1

kochia (Bassia scoparia) [17] = assay: as above
Outline: as §1

[18] = system: oat, wild (wild oat, Avena fatua); assay: as above
Outline: as §1

[19] = system: palmer (palmer amaranth, palmer pigweed, Amaranthus palmeri); assay: as above
Outline: as §1

[20] = system: ragweed (common ragweed, Ambrosia artemisiifolia); assay: as above
Outline: as §1

[21] = system: ryegrass, Italian (italian ryegrass, Lolium multiflorum); assay: as above
Outline: as §1

soybean (Glycine max) [22] = assay: as above
Outline: as §1

[23] = system: wheat (Triticum aestivum); assay: as above
Outline: as §1

[24] = system: barnyardgrass (Echinochloa crusgalli); assay: Test B flooded paddy test, visual plant response rating 0-100; conditions: 250 g ai/ha, Flood, applied to paddy water, evaluated after 13 days
Outline: (§2)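 Plants were grown to the 2-leaf stage, then pots were flooded to 3 cm above the soil and test compounds were applied directly into the paddy water. Water depth was held there throughout; after 13 days in a greenhouse, injury was scored visually against untreated controls.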

[25] = system: ducksalad (Heteranthera limosa); assay: as above; conditions: 250 g ai/ha, Flood, applied to paddy water, evaluated after 13 days
Outline: as §2

rice (Oryza sativa) = assay: as above; conditions: 250 g ai/ha, Flood, applied to paddy water, evaluated after 13 days
Outline: as §2

[26] = system: sedge, umbrella (small-flower umbrella sedge, Cyperus difformis); assay: as above; conditions: 250 g ai/ha, Flood, applied to paddy water, evaluated after 13 days
Outline: as §2

[27] = 62 g ai/ha, 0 = no effect, 100 = complete control
[28] = 62 g ai/ha, postemergence, 10 days, 0 = no effect, 100 = complete control
[29] = Postemergence, 16 g ai/ha, greenhouse 10 days, 0 no effect, 100 complete control

SMILES: C=CC1(C(=O)NC2COC(C(=O)OC)C2)CN(c2cc(F)cc(F)c2)C(=O)O1 (centres unmarked) [Compound 170]
- Barnyardgrass plant response rating ([1]; 16 g ai/ha, 0 to 100 scale): 0
- Barnyardgrass plant response rating (0-100) [1, 27]: 0
- Blackgrass plant response rating ([2]; 16 g ai/ha, 0 to 100 scale): 0
- Blackgrass plant response rating (0-100) [2, 27]: 0
- Corn plant response rating (corn (Zea mays) [3]; 16 g ai/ha, 0 to 100 scale): 0
- Corn plant response rating (0-100) (corn (Zea mays) [3]; [27]): 0
- Foxtail, Green plant response rating ([4]; 16 g ai/ha, 0 to 100 scale): 0
- Foxtail, Green plant response rating (0-100) [4, 27]: 0
- Kochia plant response rating (kochia (Bassia scoparia) [5]; 16 g ai/ha, 0 to 100 scale): 0
- Kochia plant response rating (0-100) (kochia (Bassia scoparia) [5]; [27]): 0
- Oat, Wild plant response rating ([6]; 16 g ai/ha, 0 to 100 scale): 0
- Oat, Wild plant response rating (0-100) [6, 27]: 0
- Pigweed, Palmer plant response rating ([7]; 16 g ai/ha, 0 to 100 scale): 0
- Pigweed, Palmer plant response rating (0-100) [7, 27]: 0
- Ragweed plant response rating ([8]; 16 g ai/ha, 0 to 100 scale): 0
- Ragweed plant response rating (0-100) [8, 27]: 0
- Ryegrass, Italian plant response rating ([9]; 16 g ai/ha, 0 to 100 scale): 10
- Ryegrass, Italian plant response rating (0-100) [9, 27]: 20
- Soybean plant response rating (soybean (Glycine max) [10]; 16 g ai/ha, 0 to 100 scale): 0
- Soybean plant response rating (0-100) (soybean (Glycine max) [10]; [27]): 0
- Wheat plant response rating ([11]; 16 g ai/ha, 0 to 100 scale): 0
- Wheat plant response rating (0-100) [11, 27]: 0
- Barnyardgrass plant response rating (0-100) [12, 28]: 30
- Barnyardgrass plant response rating (0 to 100 scale) [12, 29]: 0
- Blackgrass plant response rating (0-100) [13, 28]: 0
- Blackgrass plant response rating (0 to 100 scale) [13, 29]: 0
- Corn plant response rating (0-100) (corn (Zea mays) [14]; [28]): 0
- Corn plant response rating (0 to 100 scale) (corn (Zea mays) [14]; [29]): 0
- Galium plant response rating (0-100) [15, 28]: 40
- Galium plant response rating (0 to 100 scale) [15, 29]: 0
- Foxtail, Green plant response rating (0-100) [16, 28]: 0
- Foxtail, Green plant response rating (0 to 100 scale) [16, 29]: 0
- Kochia plant response rating (0-100) (kochia (Bassia scoparia) [17]; [28]): 0
- Kochia plant response rating (0 to 100 scale) (kochia (Bassia scoparia) [17]; [29]): 0
- Oat, Wild plant response rating (0-100) [18, 28]: 0
- Oat, Wild plant response rating (0 to 100 scale) [18, 29]: 0
- Pigweed, Palmer plant response rating (0-100) [19, 28]: 0
- Pigweed, Palmer plant response rating (0 to 100 scale) [19, 29]: 0
- Ragweed plant response rating (0-100) [20, 28]: 0
- Ragweed plant response rating (0 to 100 scale) [20, 29]: 0
- Ryegrass, Italian plant response rating (0-100) [21, 28]: 0
- Ryegrass, Italian plant response rating (0 to 100 scale) [21, 29]: 0
- Soybean plant response rating (0-100) (soybean (Glycine max) [22]; [28]): 30
- Soybean plant response rating (0 to 100 scale) (soybean (Glycine max) [22]; [29]): 0
- Wheat plant response rating (0-100) [23, 28]: 0
- Wheat plant response rating (0 to 100 scale) [23, 29]: 0
- Plant response rating, Barnyardgrass (0 to 100 scale, 0 is no effect and 100 is complete control) [24]: 0
- Plant response rating, Ducksalad (0 to 100 scale, 0 is no effect and 100 is complete control) [25]: 0
- Plant response rating, Rice (0 to 100 scale, 0 is no effect and 100 is complete control) (rice (Oryza sativa)): 0
- Plant response rating, Sedge, Umbrella (0 to 100 scale, 0 is no effect and 100 is complete control) [26]: 0
